For series [1], the system named is lipid peroxidation in rat brain homogenates. Put plainly: Lipid peroxidation (TBARS) assay in whole rat brain homogenates. To be noted: Fe2+-treated rat brain homogenates, MDA level, mean ± SD, n = 3. It is filed as biochemical. Here is the method: Whole rat brain homogenates were prepared from freshly killed Sprague Dawley rats (male, 6-months old) and provided by the Aging Tissue Bank of Pusan National University. One g of whole rat brain was homogenized in 10 mL of cold 20 mM sodium phosphate buffer containing 140 mM KCl (pH 7.4) and centrifuged at 1300× g for 15 min.
A TBA reactive species (TBARS) assay was used to evaluate the antioxidant activity of the phlorotannins in the rat brain homogenates. An aliquot of the supernatant fraction of the homogenates was mixed with phlorotannins dissolved in 10% DMSO, freshly prepared ferric sulfate (250 μM), and distilled water in a 10:5:3:12 ratio, and then the reaction mixture was incubated at 37 °C for 1 h. The reaction was completed by adding a color reagent containing 0.8% TBA, 8.1% SDS, and a 7.5% (final concentration) acetic acid-NaOH solution (pH 3.4) in a 2:1:2 ratios. The mixture was boiled in a water bath for 1 h. After cooling, the reaction mixture was mixed with an equal volume of n-butanol and centrifuged at 1300× g for 10 min. The absorbance of the upper layer was measured at 532 nm using a spectrophotometer (Molecular Devices). The formation of TBARS was expressed as MDA nmol/mg protein using 1,1,3,3-tetramethoxypropane as a standard. Trolox was used as a positive control.

Another series addresses T1, Aβ25-35 (Homo sapiens, UniProt P05067).
T1 construct: Gly1 and Phe1 for insulin) and C-terminals (Met35 for Aβ25-35; purchased Sigma-Aldrich
Kind of series: Aβ25-35 self-aggregation assay (thioflavin-T fluorescence). In kind it is biochemical. To be noted: for inhibition at 10 µM: read-out: inhibition of Aβ25-35 self-aggregation. As to the method: A monomeric Aβ25-35 solution was prepared using the method of Naldi and coworkers. A 2.5 μL aliquot of various concentrations of the tested phlorotannins in 50 mM phosphate buffer (pH 7.4) with 100 mM NaCl was added to 72.5 μL of Aβ25-35 sample (100 μM), and the mixture was incubated at 4 °C for 1 day. After incubation, 25 μM thioflavin T in 50 mM glycine-NaOH buffer (pH 8.5) was added to the reaction mixture. Fluorescence emission intensity was monitored at 490 nm (λexc = 446 nm) using a fluorescence microplate reader (Gemini XPS, Molecular Devices, Sunnyvale, CA, USA).

The target of series [2] is T2, bovine insulin (Bos taurus, UniProt P01317).
T2 construct: Phe1 and Asn3 in chain B and Ser12, Gln15, Glu17, and Asn18 in chain A of the insulin; purchased Sigma-Aldrich; host or cells: bovine pancreas
T2 sequence (P01317 25-54 limits assumed): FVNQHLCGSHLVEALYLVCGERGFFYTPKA
T2 sequence (P01317 85-105 limits assumed): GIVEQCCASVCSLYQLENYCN
Kind of series: D-ribose-induced non-enzymatic insulin glycation assay. It is filed as biochemical. The note with it: for inhibitory activity on D-ribose-induced insulin glycation: at 100 µM. As to the method:
(§1) Glycated bovine insulin was observed by fluorescence spectroscopy because AGEs are marked by a typical fluorescence emission at 410 nm (excitation at 320 nm). To verify our experimental condition, we used vanillin as a negative control for D-ribose-induced protein glycation and rutin as a positive control for d-glucose-induced protein glycation.
(§2) The insulin from bovine pancreas was dissolved in third grade distilled water to a concentration of 6 mg/mL and acidified to pH 2.4 using phosphoric acid to produce monomeric insulin. Then the insulin solution was neutralized to pH 7.0 using 10 M NaOH. Non-enzymatic glycation of insulin was initiated by mixing the insulin solution, 0.5 M D-ribose (or 1.5 M D-glucose) in 50 mM NaH2PO4 buffer (pH 7.0), and 10% dimethyl sulfoxide (DMSO) or the test phlorotannins in a 1:8:1 ratio and incubating the mixture at 37 °C for 6 days (2 weeks for D-glucose induced insulin glycation). Vanillin was used as a negative control for D-ribose induced insulin glycation, whereas rutin was used as a positive control for D-glucose induced insulin glycation. After incubation, the reaction mixture was measured at an excitation wavelength of 320 nm and emission wavelength of 410 nm using a fluorescence microplate reader (Gemini XPS).

Series [3] deals with T2, bovine insulin. Kind of series: D-glucose-induced non-enzymatic insulin glycation assay. In kind it is biochemical. Here is the method: as §1, §2
On the set-up of series [4]: method as in PMID 30744179. To be noted: pharmacokinetic parameter prediction study; cited from earlier work.
For series [5] the following is noted: rats, intravenous injection; cited from earlier work.
[6] abbreviates: at 10 μM, thioflavin-T fluorescence.
Where [7] appears, read: thioflavin-T fluorescence, Aβ25-35 100 μM, mean ± SD, n = 3, read-out: IC50 Aβ25-35 Aggregation.
The mark [8] stands for this setting: bovine insulin, D-ribose, mean ± SD, n = 3, read-out: IC50 D-Ribose-Induced Insulin Glycation.
Where [9] appears, read: bovine insulin, D-glucose, 2 weeks incubation, mean ± SD, n = 3, read-out: IC50 D-Glucose-Induced Insulin Glycation.

Like-named read-outs stand apart in the source and are kept apart here.

Regarding `Cc1c(C)c2c(c(C)c1O)CCC(C)(C(=O)O)O2` (stereo not shown) [Trolox, reference compound], the 50% effective concentration (EC50) (commonly the concentration giving half of the maximal effect) in series [1] was 49 ± 3.5 µM.

With `Oc1cc(O)cc(Oc2c(O)cc(O)c3c2Oc2c(O)cc4oc5c(Oc6cc(O)cc(O)c6)c(O)cc(O)c5c4c2O3)c1` [Phlorofucofuroeckol-A, phlorofucofuroeckol-A], at Aβ25-35 (setting [6]), the inhibition (in general, the drop in the measured response relative to a control, in per cent) at 10 µM came to 80%. Moreover, the results for the IC50 on Aβ25-35 (setting [7]), on bovine insulin [2] (setting [8]) and on bovine insulin [3] (setting [9]) were 6.18 ± 0.18 µM, 29.5 ± 0.53 µM and 43.5 ± 2.38 µM, respectively. The same compound showed an EC50 in series [1] of 11 ± 0.16 µM.

For `Oc1cc(O)cc(O)c1` [Phloroglucinol, phloroglucinol], the “inhibitory effect on Aβ25-35 self-aggregation” value on Aβ25-35 (at 50 μM) is “no inhibitory effect”. Also, the IC50 on Aβ25-35 (setting [7]), on bovine insulin [2] (setting [8]) and at bovine insulin [3] (setting [9]) was more than 100 µM each time. The “inhibitory activity on D-ribose-induced insulin glycation” value at bovine insulin [2] is on record as “weak or no inhibitory activity”. The compound also came in with an inhibition at 100 µM against bovine insulin [3] (at 100 µM) of 40%. The same compound returned an EC50 in series [1] of more than 75 µM.

As for `Oc1cc(O)cc(Oc2c(O)cc(O)c3c2Oc2c(O)cc(O)cc2O3)c1` [Eckol, eckol], the inhibition at 10 µM at Aβ25-35 (setting [6]) was found to be 34.5%. Moreover, the IC50 (usually the concentration at which inhibition is half-maximal) on Aβ25-35 (setting [7]) was 34.4 ± 1.11 µM; on bovine insulin [2] (setting [8]), 259 ± 10.8 µM; at bovine insulin [3] (setting [9]), more than 100 µM. Further, in series [1], the EC50 came out at 38.6 ± 1.16 µM. Besides, the CNS penetration entry in series [4] is listed as “penetrates the CNS moderately”.

Consider `Oc1cc(O)c2oc3cc(O)c4oc5cc(O)cc(O)c5oc4c3oc2c1` [Dioxinodehydroeckol, dioxinodehydroeckol], for which, on Aβ25-35, half-maximal inhibition (IC50) was put at 8.31 ± 0.23 µM and the inhibition at 10 µM stood at 66.1%. Besides, at bovine insulin [2], the IC50 was more than 100 µM and the “inhibitory activity on D-ribose-induced insulin glycation” value is listed as “weak or no inhibitory activity”. The IC50 at bovine insulin [3] was more than 100 µM. The compound further showed an EC50 in series [1] of 12.4 ± 1.5 µM.

Regarding `Oc1cc(O)cc(Oc2c(O)cc(O)c3c2Oc2c(O)cc(Oc4c(O)cc(Oc5c(O)cc(O)c6c5Oc5c(O)cc(O)cc5O6)cc4O)cc2O3)c1` [Dieckol, dieckol], the inhibition at 10 µM at Aβ25-35 (setting [6]) came to 67%. In addition, the IC50 on Aβ25-35 (setting [7]) was 7.93 ± 0.16 µM; on bovine insulin [2] (setting [8]), 63.7 ± 3.83 µM; at bovine insulin [3] (setting [9]), more than 100 µM. Besides, the BBB passage result in series [5] is recorded as “effectively passed the BBB”. The EC50 in series [1] was 13.5 ± 0.38 µM.

Consider `COc1cc(C=O)ccc1O` [Vanillin, vanillin, reference compound], for which the “activity on D-ribose-induced insulin glycation” value on bovine insulin [2] (at 500 µM, negative control) is on record as “no activity”. Moreover, at bovine insulin [2] (setting [8]), the IC50 is more than 500 µM.

For `C[C@@H]1O[C@@H](OC[C@H]2O[C@@H](Oc3c(-c4ccc(O)c(O)c4)oc4cc(O)cc(O)c4c3=O)[C@H](O)[C@@H](O)[C@@H]2O)[C@H](O)[C@H](O)[C@H]1O` [Rutin, rutin, reference compound], on bovine insulin [3] (setting [9]), the IC50 worked out at 5.19 ± 1.35 µM.

(Values after paper PMC6891666, “Identifying Phlorofucofuroeckol-A as a Dual Inhibitor of Amyloid-β25-35 Self-Aggregation and Insulin Glycation: Elucidation of the Molecular Mechanism of Action” (Marine Drugs, 2019).)
